Patent US12116614B2, “Methods for determining antibiotic sensitivity” (priority 2020, dated 2024)
Entries after “also recorded” stand apart in the source; their conditions may differ.

How the values were obtained:
NRel M. catarrhalis = conditions: released from dual-species biofilm by anti-rsPilA; cited from earlier work
NRel NTHI = conditions: released from dual-species biofilm by anti-rsPilA; cited from earlier work
[1] = system: NTHI (biofilm-resident, planktonic, anti-rsPilA NRel, anti-IHF NRel); assay: Antibiotic sensitivity of biofilm-resident, planktonic or NRel NTHI (2 h antibiotic exposure, CFU plating); assay type: cell-based, Nontypeable Haemophilus influenzae; conditions: for sensitivity to killing of anti-IHF NRel compared to planktonic NTHI / sensitivity to killing of anti-rsPilA NRel compared to planktonic NTHI: 2 h antibiotic at concentration killing ~20-25% of planktonic NTHI; for sensitivity to killing of time-matched anti-rsPilA NRel compared to planktonic NTHI: TMP-SMX 0.09 and 0.45 μg per ml, AMC 0.3 and 0.15 μg per ml
Method: Biofilms were established for 16 hr at 37° C. as described above. For biofilm-resident NTHI: biofilms were washed twice with DPBS and incubated in sBHI supplemented with the indicated antibiotics for at 37° C. 2 h. For planktonic NTHI: NTHI were incubated in sBHI for 3 hr as described above to reach log phase of growth, then diluted to the approximate concentration of either the anti-IHF (2×10^8 CFU/ml) or anti-rsPilA NRels (3×10^8 CFU/ml) to permit comparison between anti-IHF or anti-rsPilA NRels, (see FIG. 1). Planktonic NTHI were incubated with the indicated antibiotics at 37° C. for 2 hr. For NRel NTHI: anti-IHF or anti-rsPilA NRel, generated and collected as described above were incubated at 37° C. for 2 hr with the indicated antibiotics. CFU NTHI were determined by serial dilution and plating. Amoxicillin (Sigma-Aldrich, St. Louis, MO) and clavulanate (U.S. Pharmacopeia, Rockville, MD) were used at a ratio of 2:1. Trimethoprim (Sigma-Aldrich) and sulfamethoxazole (Santa Cruz Biotech, Dallas, TX) were used at a ratio of 1:5. […] All experiments were performed at least three times on separate days with two technical replicates for each treatment and control group.
To avoid excessive manipulation or dilution of NRel NTHI, and to permit direct comparison of equal numbers of planktonic and NRel, the planktonic cell density was adjusted to the same CFU per ml as the NRel population in each experiment as follows: NTHI were incubated statically to mid log phase growth then diluted to either 3×10^8 CFU/ml for comparison with anti-rsPilA NRel collected at 6 h, or to 2×10^8 CFU/ml for comparison with anti-IHF NRel collected at 15 min (see FIG. 1). Applicant then determined the concentrations of amoxicillin (Sigma-Aldrich, St. Louis, MO) and clavulanate (U.S. Pharmacopeia, Rockville, MD), or of trimethoprim (Sigma-Aldrich) and sulfamethoxazole (Santa Cruz Biotech, Dallas, TX) that killed approximately 25% of planktonic NTHI at each density. The same antibiotic concentrations were used for the anti-IHF or anti-rsPilA NRel, the density-matched (same CFU/ml) planktonic NTHI, and the adherent biofilm for each relevant experiment. […] Applicant then assessed killing of anti-IHF or anti-rsPilA NRel by concentrations of amoxicillin plus clavulanic acid (“augmentin”, AMC) or trimethoprim plus sulfamethoxazole (TMP-SMX) that killed 25% of the planktonic NTHI at the same density.
Anti-rsPilA or anti-IHF NRel were collected and sonicated as described above. After sonication for 2 min in a water bath sonicator to break up any NTHI aggregates, NRel or planktonic NTHI were incubated with the indicated antibiotics at 37° C. for 2 h, then serially diluted and plated on chocolate agar to quantify viable NTHI. To assay biofilm-resident NTHI, biofilms were established for 16 h at 37° C. as described above, washed twice with DPBS and incubated in sBHI supplemented with the indicated antibiotics at 37° C. After 2 h, biofilm-resident NTHI were collected by forceful pipetting, sonicated for 2 min and enumerated as described above. All experiments were performed at least three times on separate days with two or three technical replicates for each treatment and control group.

[2] = system: NRel versus Non-Associated NTHI
From the text: Applicant tested for this phenotype for either Amox/Clav or Trimethoprim/Sulfamethoxazole to determine when this sensitivity first appears and how long this NRel phenotype lasts (i.e. what is the window of opportunity in which to treat a patient with a biofilm disease?). Here, NRel are compared not to planktonic bacteria (due to their artificiality) but rather to “Non-Associated” bacteria which are those found in the supernatant above the biofilm but not associated with biofilm residence as this population represents those bacteria that naturally come off the biofilm or were never a part of the biofilm which is a normal aspect of the preferred bacterial lifestyle in nature. […] Box Legend: NRelAC—relative killing by Amox/Clav; NRel TS—relative killing by Trimethoprim/Sulfamethoxazole; open symbols are the same but for the non-associated populations of bacteria as now described in this legend. Data was generated with a murine anti-tip chimer antibody.
Box Legend: NRelAC—relative killing by Amox/Clav; NRel TS—relative killing by Trimethoprim/Sulfamethoxazole; open symbols are the same but for the non-associated populations of bacteria as now described in this legend. Data was generated with a murine anti-tip chimer antibody.

[3] = after exposure to antibodies against rsPilA

Row | Molecule | susceptibility of NRel M. catarrhalis compared to those from growth on agar (NRel M. catarrhalis) | susceptibility of NRel NTHI compared to those from growth on agar (NRel NTHI) | sensitivity of biofilm-resident NTHI to killing ([1]; 16 h biofilm, 2 h antibiotic) | sensitivity to killing of anti-IHF NRel compared to biofilm-resident NTHI ([1]; NRel after 15 min anti-IHF, 2 h antibiotic) | sensitivity to killing of anti-IHF NRel compared to planktonic NTHI ([1]; NRel after 15 min anti-IHF) | sensitivity to killing of anti-IHF NRel compared to planktonic NTHI ([1]; NRel after 15 min anti-IHF, listed as TMP-SMX) | sensitivity to killing of anti-rsPilA NRel compared to biofilm-resident NTHI ([1]; NRel after 6 h anti-rsPilA, 2 h antibiotic) | sensitivity to killing of anti-rsPilA NRel compared to planktonic NTHI ([1]; NRel after 6 h anti-rsPilA) | sensitivity to killing of anti-rsPilA NRel compared to planktonic NTHI ([1]; NRel after 6 h anti-rsPilA, listed as TMP-SMX) | sensitivity to killing of time-matched anti-rsPilA NRel compared to planktonic NTHI ([1]; NRel collected after 2 h, listed as TMP-SMX) | sensitivity to killing of time-matched anti-rsPilA NRel compared to planktonic NTHI ([1]; NRel collected after 2 h, listed as TMP/SMX) | sensitivity to killing of time-matched anti-IHF NRel compared to planktonic NTHI ([1]; NRel collected after 2 h, TMP-SMX 0.94 and 4.7 μg/ml, AMC 2.5 and 1.25 μg/ml) | sensitivity of anti-DNABII NRel to killing compared to Non-Associated bacteria ([2]; NRel induced with murine anti-tip chimer antibody) | sensitivity of anti-rsPilA NRel to being killed compared to Non-Associated bacteria ([2]; NTHI released by antibody against rsPilA) | time at which greater sensitivity of anti-rsPilA NRel appears [2, 3] | time at which the sensitive phenotype of anti-rsPilA NRel remains [2, 3] [h]
1 | CC[C@H]1OC(=O)[C@H](C)[C@@H](O[C@H]2C[C@@](C)(OC)[C@@H](O)[C@H](C)O2)[C@H](C)[C@@H](O[C@@H]2O[C@H](C)C[C@H](N(C)C)[C@H]2O)[C@](C)(OC)C[C@@H](C)C(=O)[C@H](C)[C@@H](O)[C@]1(C)O [clarithromycin] | more susceptible |  |  |  |  |  |  |  |  |  |  |  |  |  |  | 
2 | trimethoprim and sulfamethoxazole [T/S] |  | more susceptible | minimal sensitivity | significantly more sensitive | only equally as sensitive | only equally as sensitive | significantly more sensitive | significantly more sensitive; also recorded: significantly greater | significantly greater | significantly more susceptible | significantly more sensitive | only equally as sensitive; also recorded: equally susceptible | as but not more sensitive | significantly greater sensitivity | approximately one | ≥ 6
